This is an account of results in patent US20130224151A1, “Use of FAAH Inhibitors for Treating Abdominal, Visceral and Pelvic Pain” (UNITED STATES OF AMERICA, priority 2010, published 2013).

In this experiment the test system is FAAH substrates (AEA, OEA, and PEA). The experiment is described as follows: Brain and GI tissue fatty acid amide levels in cortagine-induced visceral hypersensitive rats (LC-MS/MS). The experiment is classed as in vivo, rat. As for the experimental part: Rats were treated with the FAAH inhibitor URB597 [3′-(aminocarbonyl) biphenyl-3-yl cyclohexylcarbamate](3 mg/kg, SC route) or vehicle (DMSO/cremophor/isotonic saline (1:1:8 v:v:v), PO route) in the cortagine-induced visceral hypersensitivity model as described in Example 3. Briefly Male Sprague-Dawley rats were habituated to Bollman cages for 3 days. The following day, rats were anesthetized with isoflurane and a 5 cm balloon pressure sensor was inserted into the distal colon 1 cm from the anus. After 20 min, a first colorectal distension (CRD) baseline was performed (10, 20, 40, 60 mmHg, 20 s duration, 4 min inter-stimulus) and the visceromotor response (VMR) assessed. After the first CRD, rats were treated with URB597 (3 mg/kg in vehicle, SC route) or vehicle (DMSO/cremophor/isotonic saline (1:1:8 v:v:v), PO route). Two hours later, rats were treated with cortagine (10 μg/kg in vehicle, IP route). After 15 min, a second CRD was performed.
Thirty min after the second CRD, rats were anesthetized with isoflurane, decapitated, and brains were collected rapidly, placed on sheets of aluminum foil sitting on dry ice to flash freeze. A 5 cm-long segment of jejunum and a 5 cm-long segment of ascending colon were collected, split open, dipped in ice-cold physiological saline to rinse away intestinal contents, placed on aluminum foil on top of dry ice to flash freeze. Then, brains, jejunum and ascending colon were placed in separate labeled Falcon tubes, respectively, and stored at −80° C.
On each experimental day, one naive untreated rat (n=6 total) (not treated with test compounds, not treated with cortagine and not subjected to CRD assay), kept in normal housing and handling conditions was also euthanized and its brain, jejunum and ascending colon collected as described above. The other rats were euthanized by CO2 inhalation followed by thoracotomy.
Levels of the endocannabinoids N-arachidonoyl-ethanolamide (AEA, anandamide), N-oleoyl-ethanolamide (OEA) and N-palmitoyl-ethanolamide (PEA) in the brain, jejunum and ascending colon were measured by LC-MS/MS.
The fatty acid amides were extracted from the samples and standards by modifications of the method described in Richardson et al, Analytical Biochemistry, 2007, 360: 216-226, as described below.
Intestine samples were removed from the −80° C. freezer and placed on dry ice. Each intestine sample was weighed in a clean, tared 50 mL polypropylene BD Falcon tube and placed on wet ice after recording the weight. Using a glass pipette, 7 mL of (room temp.) 9:1 ethyl acetate:hexane were added to each intestine. Then, 2.5 μL of 5 μg/mL of IS (12.5 ng, prepared as indicated below) was added to each intestine sample. One conical container was removed at a time from the wet ice and homogenized until the tissue was uniformly minced. Using a homogenizer probe, the contents were homogenized for 30 seconds; 3 mL of water were added to each intestine sample, then homogenized for an additional 15 seconds. The homogenizer probe was rinsed with water between samples and with water and 70% EtOH between dose groups. The homogenates were vortexed for ˜5 sec then centrifuged at […], 3500 rpm for 20 minutes. The ethyl acetate layer (top layer) was recovered and placed in 15 mL glass tubes. The solvent was evaporated under nitrogen (TurboVap, 55° C.) until dry and the tissue extracts were reconstituted in 0.25 mL of 1:3 CHCl3:MeOH. Then the glass tubes were placed in a 37° C. shaking water bath for 5 min and vortexed again to re-suspend them. The samples were transferred to Eppendorf tubes and centrifuged (at room temp) at 13,000 rpm for 3 min. Then, 75 μL of each sample and standard was transferred to a 96 deep well plate on wet ice, and the remaining supernatant was stored at −80° C. The samples and standards were diluted to 1:1 using a multi-channel pipette by adding 75 μL of 100 ng/mL d-4-AEA in ice-cold methanol and pipetting up and down to mix. […]

[1] abbreviates: URB597 3 mg/kg SC, first trial, Student's t test.

Structures are written as SMILES.

`NC(=O)c1cccc(-c2cccc(OC(=O)NC3CCCCC3)c2)c1` [URB597, 3′-(aminocarbonyl) biphenyl-3-yl cyclohexyl carbamate, reference compound]: the “levels of AEA, OEA and PEA in the brain, ascending colon and jejunum” value (URB597 3 mg/kg SC single administration, cortagine-induced visceral hypersensitive rats, first trial, 3 mg/kg) was “elevated levels of the three FAAH substrates”. Under setting [1], the “levels of AEA and PEA in the jejunum” value is on record as “statistically different from those in the naïve rats”; the “levels of AEA, OEA, and PEA in the ascending colon versus vehicle treated and naïve rats” value was “statistically different from those in the vehicle treated and naïve rats”; the “levels of AEA, OEA, and PEA in the brain versus vehicle treated and naïve rats” value was “statistically different from those in the vehicle treated and naïve rats”; the “levels of OEA in the jejunum” value is “statistically different from those in the vehicle treated and naïve rats”. Besides, the “levels of AEA, OEA and PEA in the brain, ascending colon and jejunum” value (second trial, URB597 3 mg/kg SC + cortagine 10 ug/kg IP) is “elevated levels of the three FAAH substrates”.
